Values of other authors in patent US5414009A, “Azabicyclo substituted oxa- or thia-diazole compounds” (Novo Nordisk A/S, priority 1992, dated 1995).
Like-named read-outs stand apart in the source and are kept apart here.

What was measured:
[1] = in vivo
[2] = system: muscarinic receptor in the CNS; settings: for Kd: read-out: affinity of sites labelled by 3H-Oxo
M1-sites = settings: M1-site, pirenzepine sensitive site

For `COC(=O)C1=CCCN(C)C1` [Arecoline, methyl 1-methyl-1,2,5,6-tetrahydropyridine-3-carboxylate], the biological half life [1] is given as “very short biological half life”, the cholinergic agonism (muscarinic cholinergic) is given as “cholinergic agonist” and the “separation between central and peripheral muscarinic effects” value (muscarinic) is given as “small separation between central and peripheral muscarinic effects”.

In the case of `C[N+](C)(C)CC#CCN1CCCC1=O` [Compound 3H-Oxo], the “preference for agonist domains of the receptors” value ([2]; CNS) is given as “with a preference for agonist domains of the receptors”, the Kd ([2]; first of three sites (high affinity)) is given as 0.0018 µM and the Kd ([2]; second of three sites (medium affinity)) is given as 0.02 µM. The Kd ([2]; third of three sites) was 3 µM.

In the case of `CN1CCN(CC(=O)N2c3ccccc3C(=O)Nc3cccnc32)CC1` [Pirenzepine, pirenzepine, [N-methyl-^3 H]], the “selective binding to subtype of muscarinic receptors” value (M1-sites) is listed as “binds selectively to subtype of muscarinic receptors” and the “interaction with M2-sites” value (M2-sites) is listed as “also interact with M2”.
